The source made the active and inactive calls.
What was measured:
[1] = protection from phage-mediated lysis, alamar blue read-out – E. coli UTI89, K1F phage, bacterial capsule biogenesis inhibitors (AID 488966); format: functional
[2] = biological target: T1, RNA-binding protein pos-1 (Caenorhabditis elegans, UniProt G5EF15); experiment: disruptors of C. elegans POS-1 RNA interaction – biochemical, fluorescence polarization, dose response (AID 1964);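 note: purified POS-1 fused to maltose binding protein made in E. coli; potency of compounds blocking POS-1 binding to fluorescent RNA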
T1 sequence (G5EF15 whole entry): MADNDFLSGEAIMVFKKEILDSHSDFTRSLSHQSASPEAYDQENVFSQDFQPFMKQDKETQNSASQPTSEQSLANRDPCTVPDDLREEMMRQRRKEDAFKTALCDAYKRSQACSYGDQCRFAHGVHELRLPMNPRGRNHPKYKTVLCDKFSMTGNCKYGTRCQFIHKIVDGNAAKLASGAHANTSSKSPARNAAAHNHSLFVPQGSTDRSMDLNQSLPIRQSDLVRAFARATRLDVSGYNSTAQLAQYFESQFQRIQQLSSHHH

[3] = biological target: T2, Zinc finger protein mex-5 (Caenorhabditis elegans, UniProt Q9XUB2); experiment: potency of MEX-5 RNA-binding blockers – biochemical, C. elegans, fluorescence polarization, dose response (AID 1960)
T2 sequence (Q9XUB2 whole entry): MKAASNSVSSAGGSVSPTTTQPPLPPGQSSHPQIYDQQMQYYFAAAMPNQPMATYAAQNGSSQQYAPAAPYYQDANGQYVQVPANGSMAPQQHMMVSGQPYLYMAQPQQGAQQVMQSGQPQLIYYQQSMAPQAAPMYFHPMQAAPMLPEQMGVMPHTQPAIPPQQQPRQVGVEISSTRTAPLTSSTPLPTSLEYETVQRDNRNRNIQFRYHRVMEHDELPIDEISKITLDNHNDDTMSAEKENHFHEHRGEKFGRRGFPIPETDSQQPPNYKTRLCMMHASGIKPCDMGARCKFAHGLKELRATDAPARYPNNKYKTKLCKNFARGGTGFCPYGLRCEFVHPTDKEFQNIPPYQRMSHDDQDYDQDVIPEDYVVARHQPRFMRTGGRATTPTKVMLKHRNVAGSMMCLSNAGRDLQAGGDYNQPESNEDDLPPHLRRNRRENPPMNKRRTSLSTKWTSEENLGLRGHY

[4] = biological target: Induced myeloid leukemia cell differentiation protein Mcl-1 (Homo sapiens, UniProt Q07820); format: functional
Induced myeloid leukemia cell differentiation protein Mcl-1, sequence (Q07820 whole entry): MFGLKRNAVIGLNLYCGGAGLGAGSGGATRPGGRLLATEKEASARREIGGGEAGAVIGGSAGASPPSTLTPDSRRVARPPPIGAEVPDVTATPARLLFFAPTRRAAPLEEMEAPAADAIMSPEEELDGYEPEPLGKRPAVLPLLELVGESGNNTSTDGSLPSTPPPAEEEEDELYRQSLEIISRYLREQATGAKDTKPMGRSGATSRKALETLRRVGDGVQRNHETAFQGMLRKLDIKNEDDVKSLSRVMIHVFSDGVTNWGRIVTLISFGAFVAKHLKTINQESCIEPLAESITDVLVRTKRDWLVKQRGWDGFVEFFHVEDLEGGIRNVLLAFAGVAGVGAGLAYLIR

Troponin, cardiac muscle = Troponin, cardiac muscle (Homo sapiens, UniProt P19429+P45379+P63316); experiment: compounds desensitizing RTF to calcium – biochemical, fluorescence, cardiac regulated thin filaments, triplicate IC50, dose response (AID 504742); format: protein-complex assay
Genome polyprotein = Genome polyprotein (dengue virus type 2, UniProt P29990); experiment: flavivirus cap methylation enzyme inhibition – biochemical, confirmation dose response, primary screen (AID 588689); format: functional
[5] = biological target: T3, Polyadenylate-binding protein 1 (Homo sapiens, UniProt P11940); experiment: MLLE binding blockers, Cy5 peptide tracer – biochemical, fluorescence polarization, Cy5-PAM2 peptide, secondary, miRNA deadenylation inhibitor project, dose response (AID 602260); format: functional; details: read-out: IC50_Mean
T3 sequence (P11940 whole entry, the tested form may be a part): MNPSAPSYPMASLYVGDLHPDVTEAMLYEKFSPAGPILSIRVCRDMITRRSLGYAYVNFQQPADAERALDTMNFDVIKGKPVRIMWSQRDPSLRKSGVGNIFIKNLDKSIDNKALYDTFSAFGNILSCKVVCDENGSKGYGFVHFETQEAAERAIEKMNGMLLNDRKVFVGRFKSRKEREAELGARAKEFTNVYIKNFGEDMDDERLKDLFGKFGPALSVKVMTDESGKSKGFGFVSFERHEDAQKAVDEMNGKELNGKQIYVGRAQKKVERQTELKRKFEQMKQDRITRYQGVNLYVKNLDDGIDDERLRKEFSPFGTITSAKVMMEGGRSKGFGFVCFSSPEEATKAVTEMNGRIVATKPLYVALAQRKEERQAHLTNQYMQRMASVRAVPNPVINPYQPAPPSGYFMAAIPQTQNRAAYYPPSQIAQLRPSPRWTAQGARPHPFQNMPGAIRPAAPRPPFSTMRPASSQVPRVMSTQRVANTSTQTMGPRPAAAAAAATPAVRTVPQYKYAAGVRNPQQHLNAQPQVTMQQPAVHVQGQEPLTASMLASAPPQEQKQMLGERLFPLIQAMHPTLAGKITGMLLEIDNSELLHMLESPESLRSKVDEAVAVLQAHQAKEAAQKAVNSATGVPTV

[6] = biological target: T3, Polyadenylate-binding protein 1; experiment: MLLE domain peptide-binding blockers, IC50 – biochemical, fluorescence polarization, FITC-PAM2 peptide, dose response (AID 602259); format: functional; details: read-out: IC50_Mean
[7] = biological target: T4, Rac GTPase-activating protein 1 (Homo sapiens, UniProt Q9H0H5); experiment: blockers of MgcRacGAP-driven Rac1 GTP hydrolysis – biochemical, ADP Hunter fluorescence, primary and confirmatory, confirmation (AID 624330); format: functional
T4 sequence (Q9H0H5 whole entry): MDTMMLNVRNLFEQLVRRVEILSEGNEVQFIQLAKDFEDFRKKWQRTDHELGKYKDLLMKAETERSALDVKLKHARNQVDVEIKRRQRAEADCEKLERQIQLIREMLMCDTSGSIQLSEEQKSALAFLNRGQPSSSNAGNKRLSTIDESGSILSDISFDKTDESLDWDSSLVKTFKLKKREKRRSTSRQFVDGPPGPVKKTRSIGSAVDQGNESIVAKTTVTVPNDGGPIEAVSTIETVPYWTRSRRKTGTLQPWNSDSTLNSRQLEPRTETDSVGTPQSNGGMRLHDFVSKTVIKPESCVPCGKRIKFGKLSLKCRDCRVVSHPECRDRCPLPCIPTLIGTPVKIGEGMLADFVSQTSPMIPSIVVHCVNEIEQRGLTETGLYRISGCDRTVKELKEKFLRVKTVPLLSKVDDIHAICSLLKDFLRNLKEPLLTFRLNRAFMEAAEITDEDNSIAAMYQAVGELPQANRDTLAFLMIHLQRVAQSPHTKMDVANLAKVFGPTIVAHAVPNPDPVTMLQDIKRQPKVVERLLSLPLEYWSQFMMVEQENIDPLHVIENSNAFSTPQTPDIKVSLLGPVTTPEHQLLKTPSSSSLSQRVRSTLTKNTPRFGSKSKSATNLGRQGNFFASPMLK

[8] = biological target: Histone-lysine N-methyltransferase NSD2 (Homo sapiens, UniProt O96028); format: biochemical
Histone-lysine N-methyltransferase NSD2, sequence (O96028 whole entry): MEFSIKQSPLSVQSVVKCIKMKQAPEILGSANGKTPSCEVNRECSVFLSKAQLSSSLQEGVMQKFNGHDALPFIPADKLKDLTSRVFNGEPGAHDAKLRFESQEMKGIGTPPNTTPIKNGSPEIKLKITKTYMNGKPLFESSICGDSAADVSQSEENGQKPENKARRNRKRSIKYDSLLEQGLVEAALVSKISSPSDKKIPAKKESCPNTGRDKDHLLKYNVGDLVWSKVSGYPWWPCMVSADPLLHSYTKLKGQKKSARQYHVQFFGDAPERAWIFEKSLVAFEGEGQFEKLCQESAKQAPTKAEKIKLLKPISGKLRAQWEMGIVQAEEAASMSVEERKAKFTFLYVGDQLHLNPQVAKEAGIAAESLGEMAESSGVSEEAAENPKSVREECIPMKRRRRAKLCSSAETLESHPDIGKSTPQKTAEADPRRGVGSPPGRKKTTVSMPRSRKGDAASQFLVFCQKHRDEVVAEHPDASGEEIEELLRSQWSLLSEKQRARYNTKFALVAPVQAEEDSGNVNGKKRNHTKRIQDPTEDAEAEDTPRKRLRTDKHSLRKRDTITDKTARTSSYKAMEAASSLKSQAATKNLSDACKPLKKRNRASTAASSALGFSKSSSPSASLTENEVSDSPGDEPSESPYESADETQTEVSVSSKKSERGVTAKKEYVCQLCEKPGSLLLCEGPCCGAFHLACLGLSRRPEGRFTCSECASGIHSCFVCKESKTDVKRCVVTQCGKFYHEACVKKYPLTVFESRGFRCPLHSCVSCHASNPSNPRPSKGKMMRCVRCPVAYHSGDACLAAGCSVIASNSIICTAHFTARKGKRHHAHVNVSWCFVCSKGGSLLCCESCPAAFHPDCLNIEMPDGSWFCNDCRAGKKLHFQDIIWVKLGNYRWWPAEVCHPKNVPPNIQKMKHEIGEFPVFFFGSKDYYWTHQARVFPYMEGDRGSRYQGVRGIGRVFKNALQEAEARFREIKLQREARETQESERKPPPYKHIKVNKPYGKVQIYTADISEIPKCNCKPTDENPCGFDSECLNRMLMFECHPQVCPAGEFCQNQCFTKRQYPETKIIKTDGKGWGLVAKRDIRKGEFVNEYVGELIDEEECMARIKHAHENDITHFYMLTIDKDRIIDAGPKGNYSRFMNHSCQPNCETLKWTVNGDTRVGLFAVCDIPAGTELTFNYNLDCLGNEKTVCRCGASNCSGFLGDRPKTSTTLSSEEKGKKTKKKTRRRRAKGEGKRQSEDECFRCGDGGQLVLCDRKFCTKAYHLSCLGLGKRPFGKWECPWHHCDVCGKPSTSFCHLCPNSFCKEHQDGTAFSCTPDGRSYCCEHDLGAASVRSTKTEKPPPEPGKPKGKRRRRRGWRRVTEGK

[9] = biological target: Diphosphomevalonate decarboxylase (Streptococcus pneumoniae serotype 2 (strain D39 / NCTC 7466), UniProt Q9FD53); experiment: diphosphomevalonate decarboxylase inhibitor confirmation – biochemical, cuvette format, coupled NADH fluorescence (AID 1028); format: functional
Diphosphomevalonate decarboxylase, sequence (Q9FD53 whole entry): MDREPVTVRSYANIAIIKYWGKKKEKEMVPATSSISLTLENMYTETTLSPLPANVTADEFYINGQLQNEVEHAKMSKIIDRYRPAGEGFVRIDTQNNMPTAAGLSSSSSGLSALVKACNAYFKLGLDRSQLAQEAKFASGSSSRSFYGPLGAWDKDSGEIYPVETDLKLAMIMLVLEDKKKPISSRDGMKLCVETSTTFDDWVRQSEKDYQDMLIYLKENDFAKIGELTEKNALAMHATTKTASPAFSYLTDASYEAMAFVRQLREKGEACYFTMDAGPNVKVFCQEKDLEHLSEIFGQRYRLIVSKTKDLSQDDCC

[10] = biological target: T5, Mannose-6-phosphate isomerase (Homo sapiens, UniProt P34949); experiment: phosphomannose isomerase inhibition – biochemical, fluorescence intensity, confirmation (AID 1535)
T5 sequence (P34949 whole entry): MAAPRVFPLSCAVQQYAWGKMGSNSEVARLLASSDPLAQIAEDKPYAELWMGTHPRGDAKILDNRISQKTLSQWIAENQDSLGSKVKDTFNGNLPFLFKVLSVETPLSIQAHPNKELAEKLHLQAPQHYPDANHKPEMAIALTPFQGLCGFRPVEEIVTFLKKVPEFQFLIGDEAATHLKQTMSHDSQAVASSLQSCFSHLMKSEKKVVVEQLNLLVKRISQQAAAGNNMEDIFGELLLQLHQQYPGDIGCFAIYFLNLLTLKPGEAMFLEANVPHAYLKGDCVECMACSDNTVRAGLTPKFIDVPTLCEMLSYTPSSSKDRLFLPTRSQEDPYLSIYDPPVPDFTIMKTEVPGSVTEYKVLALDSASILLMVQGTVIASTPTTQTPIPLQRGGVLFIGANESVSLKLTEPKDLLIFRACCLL

Phosphomannomutase 2 = Phosphomannomutase 2 (Homo sapiens, UniProt O15305); experiment: Counter screen SAR assay for PMM2 inhibitors via a fluorescence intensity assay. [Related pubchem assays (depositor defined):AID1545, AID1574]
Phosphomannomutase 2, sequence (O15305 whole entry): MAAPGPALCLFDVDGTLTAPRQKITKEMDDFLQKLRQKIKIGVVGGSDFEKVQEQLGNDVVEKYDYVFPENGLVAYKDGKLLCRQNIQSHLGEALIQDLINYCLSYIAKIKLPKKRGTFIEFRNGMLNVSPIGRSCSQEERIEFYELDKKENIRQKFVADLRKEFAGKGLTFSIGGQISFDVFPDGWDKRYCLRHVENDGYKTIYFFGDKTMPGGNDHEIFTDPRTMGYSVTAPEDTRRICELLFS

[11] = biological target: Phosphoethanolamine/phosphocholine phosphatase (Homo sapiens, UniProt Q8TCT1); experiment: SAR assay for compounds that inhibit PHOSPHO1. [Related pubchem assays (depositor defined):AID1545, AID1565, AID1574]
Phosphoethanolamine/phosphocholine phosphatase, sequence (Q8TCT1 whole entry): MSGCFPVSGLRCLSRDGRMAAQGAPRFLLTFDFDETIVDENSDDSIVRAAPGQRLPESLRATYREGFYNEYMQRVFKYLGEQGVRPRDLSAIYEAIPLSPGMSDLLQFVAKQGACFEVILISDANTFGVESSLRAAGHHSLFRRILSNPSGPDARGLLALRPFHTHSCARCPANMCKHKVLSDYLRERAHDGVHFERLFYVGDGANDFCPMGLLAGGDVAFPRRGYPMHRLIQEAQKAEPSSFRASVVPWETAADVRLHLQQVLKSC

[12] = biological target: T6, Alkaline phosphatase, tissue-nonspecific isozyme (Homo sapiens, UniProt P05186); experiment: potency against alkaline phosphatase TNAP – biochemical, luminescent, dose response, SAR follow-up (AID 1056)
T6 sequence (P05186 whole entry): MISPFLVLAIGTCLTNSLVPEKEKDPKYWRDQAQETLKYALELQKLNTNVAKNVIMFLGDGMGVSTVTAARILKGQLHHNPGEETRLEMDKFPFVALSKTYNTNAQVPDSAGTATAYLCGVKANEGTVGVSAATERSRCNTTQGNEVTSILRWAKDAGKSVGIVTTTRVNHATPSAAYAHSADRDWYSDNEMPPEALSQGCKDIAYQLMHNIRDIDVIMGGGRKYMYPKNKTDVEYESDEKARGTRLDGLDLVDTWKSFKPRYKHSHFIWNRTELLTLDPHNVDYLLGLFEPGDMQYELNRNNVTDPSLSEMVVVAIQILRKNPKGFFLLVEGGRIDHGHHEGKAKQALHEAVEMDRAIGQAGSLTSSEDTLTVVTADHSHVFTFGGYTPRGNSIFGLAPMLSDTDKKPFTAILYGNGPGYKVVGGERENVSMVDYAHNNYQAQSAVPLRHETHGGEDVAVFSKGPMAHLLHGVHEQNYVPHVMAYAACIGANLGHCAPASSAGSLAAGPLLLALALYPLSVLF

Hexokinase = Hexokinase (Trypanosoma brucei, UniProt Q38C41); experiment: Confirmation assay for inhibitors of Trypanosoma brucei hexokinase 1-Analogue-first series. [Related pubchem assays (depositor defined):AID1430, AID1632, AID2516, AID2560, AID2579, AID2600, AID449725, AID492951]; format: functional
Hexokinase, sequence (Q38C41 whole entry): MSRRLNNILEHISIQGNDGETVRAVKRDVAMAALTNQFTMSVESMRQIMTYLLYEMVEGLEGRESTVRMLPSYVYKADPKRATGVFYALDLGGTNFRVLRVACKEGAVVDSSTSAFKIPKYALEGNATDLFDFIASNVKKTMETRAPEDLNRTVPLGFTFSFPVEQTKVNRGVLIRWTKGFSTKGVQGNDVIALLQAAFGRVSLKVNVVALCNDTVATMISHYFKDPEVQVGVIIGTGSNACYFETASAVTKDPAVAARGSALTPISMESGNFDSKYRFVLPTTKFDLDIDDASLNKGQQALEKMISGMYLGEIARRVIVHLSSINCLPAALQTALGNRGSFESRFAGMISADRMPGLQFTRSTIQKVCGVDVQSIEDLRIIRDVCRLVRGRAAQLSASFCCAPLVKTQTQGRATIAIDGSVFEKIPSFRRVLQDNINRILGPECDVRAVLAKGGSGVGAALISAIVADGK

SUMO-activating enzyme [13] = biological target: T7, SUMO-activating enzyme (Homo sapiens, UniProt Q9UBT2); experiment: blockers of UBC9-mediated SUMO conjugation – biochemical, AlphaScreen, SUMOylation inhibitor project, confirmation (AID 2018); format: functional
T7 sequence (Q9UBE0 whole entry): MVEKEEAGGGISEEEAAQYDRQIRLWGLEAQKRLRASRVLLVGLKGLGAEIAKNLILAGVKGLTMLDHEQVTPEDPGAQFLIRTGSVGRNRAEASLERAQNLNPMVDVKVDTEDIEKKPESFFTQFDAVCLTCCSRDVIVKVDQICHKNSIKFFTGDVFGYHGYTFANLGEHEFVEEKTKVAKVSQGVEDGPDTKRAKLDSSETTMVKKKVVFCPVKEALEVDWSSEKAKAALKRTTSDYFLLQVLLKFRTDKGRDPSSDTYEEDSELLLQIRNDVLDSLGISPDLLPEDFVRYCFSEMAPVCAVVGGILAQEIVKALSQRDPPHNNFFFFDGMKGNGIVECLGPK
T7 sequence (Q9UBT2 whole entry): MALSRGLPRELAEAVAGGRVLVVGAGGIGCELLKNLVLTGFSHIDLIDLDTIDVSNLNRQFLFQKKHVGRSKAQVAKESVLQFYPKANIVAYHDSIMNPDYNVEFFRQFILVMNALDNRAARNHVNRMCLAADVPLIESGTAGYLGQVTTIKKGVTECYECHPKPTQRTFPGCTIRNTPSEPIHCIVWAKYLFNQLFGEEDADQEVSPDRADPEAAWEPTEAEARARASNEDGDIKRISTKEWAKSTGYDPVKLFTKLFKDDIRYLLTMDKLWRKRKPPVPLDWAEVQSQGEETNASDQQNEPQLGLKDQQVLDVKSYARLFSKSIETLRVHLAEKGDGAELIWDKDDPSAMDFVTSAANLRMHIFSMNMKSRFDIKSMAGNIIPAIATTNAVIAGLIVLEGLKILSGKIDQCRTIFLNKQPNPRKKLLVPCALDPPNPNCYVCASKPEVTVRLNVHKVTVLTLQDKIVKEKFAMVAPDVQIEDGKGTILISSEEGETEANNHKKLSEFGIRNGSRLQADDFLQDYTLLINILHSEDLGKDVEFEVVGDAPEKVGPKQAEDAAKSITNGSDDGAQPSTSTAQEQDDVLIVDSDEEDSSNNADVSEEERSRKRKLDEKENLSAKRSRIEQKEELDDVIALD

SUMO-activating enzyme [14] = biological target: T7, SUMO-activating enzyme; experiment: blockers of SAE1/SAE2–UBC9 SUMO transfer – biochemical, HTRF, uHTS, primary screen (AID 2006); format: protein-complex assay

With CCOc1ccc(Br)cc1CSC(=N)N the IC50 [1] was > 300 µM (active).
In the case of O=C(O)c1ccc2nc(-c3ccco3)c(-c3ccco3)nc2c1, the EC50 [2] is reported as 19.5 µM (inconclusive), the EC50 [3] is reported as 10.1 µM (active) and the IC50 [4] is reported as > 54 µM (active). The IC50 (Troponin, cardiac muscle) was 20.9 µM (inactive), the IC50 (Genome polyprotein) was 51 µM (active) and the IC50 [5] was > 66 µM (inactive). The IC50 [6] was 53.2 µM (inactive), the IC50 [7] was 159 µM (active) and the AC50 [8] was 10.8 µM (active).
In the case of O=C(NCc1ccccc1)c1cccc(-n2sc3ccccc3c2=O)c1, the IC50 [9] is reported as 4.74 µM (active), the IC50 [10] is reported as 2.25 µM (active) and the IC50 (Phosphomannomutase 2) is reported as 17.8 µM (active). The IC50 [11] was 2.33 µM (inactive) and the IC50 [12] was > 100 µM (inactive).
With CN(C)c1ccc(NC(=O)Cn2sc3ccccc3c2=O)cc1 the IC50 (Hexokinase) was 7.29 µM (active).
In the case of C=CCOc1c(Br)cc(/C=C2\SC(Nc3ccccc3)=NC2=O)cc1OC, the IC50 (SUMO-activating enzyme [13]) is reported as 29.9 µM (active) and the IC50 (SUMO-activating enzyme [14]) is reported as 12 µM (active).
